Assay results taken from ChEMBL document CHEMBL1201862, “PubChem BioAssay data set” (2004).
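Where inhibition never reached the appropriate level, the endpoint shown equals the highest concentration tested. Otherwise, values were interpolated linearly from a five-concentration, 48-hour dose response in 96-well plates. Abbreviation: GI50, concentration required for 50% inhibition of growth.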 Active and inactive are the calls of the source. Cut-off read from the data, not from the text of the source: active = GI50 up to about 1.1 µM and inactive = higher.

Assays:
Test in all cases: DTP human tumour cell line panel, 48 h
KM-20L2 = test system: KM-20L2
XF498 = test system: XF498
SNB-78 = test system: SNB-78
DMS-114 = test system: DMS-114
RXF 631 = test system: RXF 631
HOP-18 = test system: HOP-18
LXFL 529 = test system: LXFL 529
M19-MEL = test system: M19-MEL
DLD-1 = test system: DLD-1

Row | Structure (SMILES) | GI50 (KM-20L2) | GI50 (XF498) | GI50 (SNB-78) | GI50 (DMS-114) | GI50 (RXF 631) | GI50 (HOP-18) | GI50 (LXFL 529) | GI50 (M19-MEL) | GI50 (DLD-1)
1 | COC(=O)c1nc(N)nc(O)c1CCCCCc1c(O)nc(N)nc1C(=O)OC | > 50 µM (inactive) | > 50 µM (inactive) | > 50 µM (inactive) | > 50 µM (inactive) | > 50 µM (inactive) | > 50 µM (inactive) | > 50 µM (inactive) | > 50 µM (inactive) | > 50 µM (inactive)
2 | CCn1c2ccccc2c2ccc3c(c21)C(=O)C=CC3=O | – | 3.84 µM (inactive) | 22 µM (inactive) | 6.65 µM (inactive) | – | 11 µM (inactive) | 1.93 µM (inactive) | 10.7 µM (inactive) | 3.85 µM (inactive)
3 | CC1(c2ccccc2)CC(c2cccc([N+](=O)[O-])c2)=NO1 (configuration not stated) | – | – | > 100 µM (inactive) | 44.2 µM (inactive) | > 100 µM (inactive) | > 100 µM (inactive) | 94.2 µM (inactive) | > 100 µM (inactive) | > 100 µM (inactive)
4 | CCN(CC)c1c(C(=O)/C=C/c2ccc(F)cc2)c(-c2ccccc2)nn(C)c1=O | 11.8 µM (inactive) | – | 14.4 µM (inactive) | 5.32 µM (inactive) | – | 21.2 µM (inactive) | 4.6 µM (inactive) | 6.64 µM (inactive) | 3.63 µM (inactive)
5 | NC1=NN(c2ccccc2)C(=O)C1C(=O)C(=O)Nc1ccc(Cl)c(Cl)c1 (configuration not stated) | > 100 µM (inactive) | – | > 100 µM (inactive) | > 100 µM (inactive) | > 100 µM (inactive) | > 100 µM (inactive) | – | > 100 µM (inactive) | > 100 µM (inactive)
6 | COc1ccc2ccnc(Cc3ccc(OCc4ccccc4)c(OC)c3)c2c1 | 34.5 µM (inactive) | 10.4 µM (inactive) | 26.2 µM (inactive) | – | – | 16.6 µM (inactive) | 25.9 µM (inactive) | – | 25.5 µM (inactive)
7 | COC(OC)c1cccnc1C | > 100 µM (inactive) | > 100 µM (inactive) | > 100 µM (inactive) | > 100 µM (inactive) | > 100 µM (inactive) | > 100 µM (inactive) | > 100 µM (inactive) | > 100 µM (inactive) | > 100 µM (inactive)
8 | COc1cc(C(CC(OC)OC)=C(C#N)C#N)cc(OC)c1OC | 11.4 µM (inactive) | – | 60.4 µM (inactive) | 20.7 µM (inactive) | – | – | 11.4 µM (inactive) | 12.2 µM (inactive) | 3.58 µM (inactive)
9 | C/C(CC(=O)Nc1cc(Cl)c(Cl)cc1Cl)=N\NS(=O)(=O)c1ccc(C)cc1 | 41.8 µM (inactive) | 28.7 µM (inactive) | 29 µM (inactive) | 28.1 µM (inactive) | 44 µM (inactive) | – | 36.2 µM (inactive) | 32.7 µM (inactive) | 33.4 µM (inactive)
10 | CNC(=O)N(C)/N=N/CCCl | > 100 µM (inactive) | – | – | > 100 µM (inactive) | – | – | > 100 µM (inactive) | > 100 µM (inactive) | > 100 µM (inactive)
11 | CON(C)C(=O)CCCO | > 100 µM (inactive) | > 100 µM (inactive) | – | > 100 µM (inactive) | > 100 µM (inactive) | > 100 µM (inactive) | > 100 µM (inactive) | > 100 µM (inactive) | > 100 µM (inactive)
12 | O=[N+]([O-])c1cccc(C(O)/C(=N/O)c2nc3ccc(Cl)cc3nc2O)c1 (configuration not stated) | > 100 µM (inactive) | > 100 µM (inactive) | – | > 100 µM (inactive) | > 100 µM (inactive) | > 100 µM (inactive) | > 100 µM (inactive) | > 100 µM (inactive) | > 100 µM (inactive)
13 | Cc1c2ccccc2c(=O)n2c(-c3ccccn3)cccc12 | > 100 µM (inactive) | > 100 µM (inactive) | > 100 µM (inactive) | > 100 µM (inactive) | – | > 100 µM (inactive) | – | 78 µM (inactive) | > 100 µM (inactive)
14 | O=C(Nc1ccccc1-c1nc2ccccc2[nH]c1=O)c1ccccc1 | 39.6 µM (inactive) | 24.6 µM (inactive) | 24 µM (inactive) | 19.5 µM (inactive) | – | – | 24.6 µM (inactive) | 32.5 µM (inactive) | 29.2 µM (inactive)
15 | CCOC(=O)C1(CC)CCCCC(=O)N1 (configuration not stated) | > 100 µM (inactive) | > 100 µM (inactive) | > 100 µM (inactive) | > 100 µM (inactive) | – | > 100 µM (inactive) | > 100 µM (inactive) | > 100 µM (inactive) | > 100 µM (inactive)
16 | COC(=O)/C(=N\O)C(C(=O)C=C(C)C)C(=O)C(=O)Nc1ccccc1C (configuration not stated) | > 100 µM (inactive) | > 100 µM (inactive) | > 100 µM (inactive) | > 100 µM (inactive) | – | > 100 µM (inactive) | > 100 µM (inactive) | > 100 µM (inactive) | > 100 µM (inactive)
17 | Clc1ccc(Nc2nc3ccccc3nc2-c2cccs2)cc1Cl | 34.6 µM (inactive) | 62.1 µM (inactive) | 58.2 µM (inactive) | – | 27.8 µM (inactive) | 97.5 µM (inactive) | 38.9 µM (inactive) | 57.8 µM (inactive) | 36.7 µM (inactive)
18 | CS(=O)(=O)OCCN1CCN(C(=O)c2ccc(Cl)c3c(Nc4ccc(S(=O)(=O)N=C(N)N)cc4)c4ccccc4nc23)CC1 | > 100 µM (inactive) | > 100 µM (inactive) | – | > 100 µM (inactive) | > 100 µM (inactive) | – | – | > 100 µM (inactive) | > 100 µM (inactive)
19 | CCN(CC)Cc1cc(Nc2ccnc3ccc4nn(C)nc4c23)ccc1O | 6.89 µM (inactive) | 11.8 µM (inactive) | 15.9 µM (inactive) | – | 7.78 µM (inactive) | – | 12.6 µM (inactive) | 11.9 µM (inactive) | –
20 | CSc1ccc2c(cc1=O)[C@@H](NC(=O)c1ccc(Cl)cc1)CCc1cc(O)c(O)c(O)c1-2 | > 100 µM (inactive) | – | > 100 µM (inactive) | 32.4 µM (inactive) | – | > 100 µM (inactive) | 33.3 µM (inactive) | 31.1 µM (inactive) | 26.1 µM (inactive)
21 | Cc1c(O)c(=O)ccn1C1OC(CO)C(O)C1O (configuration not stated) | 45 µM (inactive) | 46.2 µM (inactive) | > 100 µM (inactive) | – | – | – | > 100 µM (inactive) | > 100 µM (inactive) | 91.8 µM (inactive)
22 | Cc1cc2c(ccc3c(C)cc(=O)oc32)o1 | > 100 µM (inactive) | 40.6 µM (inactive) | > 58.5 µM (inactive) | > 100 µM (inactive) | > 100 µM (inactive) | > 55.6 µM (inactive) | > 100 µM (inactive) | > 100 µM (inactive) | > 100 µM (inactive)
23 | C/C1=C\[C@H](C)C[C@H](C)OC(=O)C[C@H](c2ccc(O)cc2)NC(=O)[C@@H](Cc2c(Br)[nH]c3ccccc23)N(C)C(=O)[C@H](C)NC(=O)[C@@H](C)C1 [JASPAMIDE] | 0.34 µM (active) | 0.226 µM (active) | 0.374 µM (active) | 0.516 µM (active) | 0.298 µM (active) | – | 0.293 µM (active) | 0.789 µM (active) | 0.843 µM (active)
